According to patent US8629102B2, “3-hydroxyisothiazole 1-oxide derivatives” (Mochida Pharmaceutical Co., Ltd., priority 2011, dated 2014):

Molecular target: T1, GPR40 of human origin (Homo sapiens, UniProt O14842)
T1 construct: expressed in transfected cells
Assay: Agonist action on GPR40 of human origin (intracellular Ca2+ change)
Assay type: cell-based
Details: CHO cell strain stably expressing GPR40 of human origin; change in Ca2+ concentration, fluorescent calcium indicator
Protocol: Pharmacological Test Example 1: Agonist Action on GPR40 of Human Origin
A CHO cell strain stably expressing GPR40 of human origin was used to determine the agonist action of a subject compound. This cell strain was seeded in a clear bottom 96 well plate at 4×10^4 cells/100 pt/well. The cell strain iswas cultured in a CO2 incubator overnight using a Ham's F-12 medium containing a 10% fetal bovine serum, 100 U/mL penicillin, 0.1 mg/mL streptomycin, and 400 μg/mL Geneticin. Calcium 4 Assay Kit (Molecular Devices) was used as a fluorescent calcium indicator. One mL of 77 mg/mL probenecid (Invitrogen) was added to 100 mL of a calcium indicator solution to prepare a solution (loading solution) mixed with a 20 mM HEPES-containing Hanks' balanced salt solution (HBSS) in equal proportions. To the cells from which the culture solution is removed, 200 μl of the loading solution was added, and the cells were cultured in a CO2 incubator for 1 hour. The subject compound was diluted with a 20 mM HEPES-containing HBSS and was added to the cells by 50 μL, and the change in the Ca^2+ concentration was measured with an intracellular ion analyzer. The EC50 value of the subject compound was calculated using the dose-response curve of fluorescence intensity variation.

T1 sequence (O14842 whole entry): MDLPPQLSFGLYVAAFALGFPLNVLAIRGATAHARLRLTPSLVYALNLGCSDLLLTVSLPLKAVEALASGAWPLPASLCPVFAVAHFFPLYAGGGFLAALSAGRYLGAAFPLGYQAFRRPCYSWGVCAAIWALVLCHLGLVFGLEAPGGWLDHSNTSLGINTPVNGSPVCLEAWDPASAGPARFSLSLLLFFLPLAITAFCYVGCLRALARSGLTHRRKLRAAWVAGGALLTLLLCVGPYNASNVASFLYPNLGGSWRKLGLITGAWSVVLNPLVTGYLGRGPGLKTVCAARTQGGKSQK

| SMILES | EC50 [nM] |
| --- | --- |
| [O-][s+]1nc(O)cc1-c1ccc(OC2CCc3cc(Br)ccc32)cc1 (stereo not shown) [Example 1, 5-(4-((5-bromo-2,3-dihydro-1H-inden-1-yl)oxy)phenyl)-3-hydroxyisothiazole 1-oxide] | < 300 |
| [O-][s+]1nc(O)cc1-c1ccc(O[C@@H]2CCc3c(Oc4cccc(OC(F)(F)F)c4)cccc32)cc1 (stereo partly drawn) [Example 99, 3-hydroxy-5-(4-(((R)-4-(3-(trifluoromethoxy)phenoxy)-2,3-dihydro-1H-inden-1-yl)oxy)phenyl)isothiazole 1-oxide] | < 300 |
| [O-][s+]1nc(O)cc1-c1ccc(OCc2ccc(Oc3ccccc3)cc2)cc1 (single isomer, unassigned) [Example 160, 3-hydroxy-5-(4-((4-phenoxybenzyl)oxy)phenyl)isothiazole 1-oxide] | < 300 |
| COc1ccc(Oc2cccc3c2CC[C@H]3Oc2ccc(-c3cc(O)n[s+]3[O-])cc2)cc1 (stereo partly drawn) [Example 92, 3-hydroxy-5-(4-(((R)-4-(4-methoxyphenoxy)-2,3-dihydro-1H-inden-1-yl)oxy)phenyl)isothiazole 1-oxide] | < 300 |
| N#Cc1ccc(Oc2cccc3c2OCC3Oc2ccc(-c3cc(O)n[s+]3[O-])cc2)cc1 (single isomer, unassigned) [Example 144-b, 4-((3-(4-(3-hydroxy-1-oxidoisothiazol-5-yl)phenoxy)-2,3-dihydrobenzofuran-7-yl)oxy)benzonitrile] | 300 to 3000 |
| Cc1ccc(Oc2cccc3c2CC[C@H]3Oc2ccc(-c3cc(O)n[s+]3[O-])cc2)nc1 (stereo partly drawn) [Example 134, 3-hydroxy-5-(4-(((R)-4-((5-methylpyridin-2-yl)oxy)-2,3-dihydro-1H-inden-1-yl)oxy)phenyl)isothiazole 1-oxide] | < 300 |
| CCOCCOc1cc(C)c(Oc2cccc3c2CC[C@H]3Oc2ccc(-c3cc(O)n[s+]3[O-])cc2)c(C)c1 (stereo partly drawn) [Example 108, 5-(4-(((R)-4-(4-(2-ethoxyethoxy)-2,6-dimethylphenoxy)-2,3-dihydro-1H-inden-1-yl)oxy)phenyl)-3-hydroxyisothiazole 1-oxide] | < 300 |
| Cc1cccc(C)c1Oc1cccc2c1CC[C@H]2Oc1ccc(-c2cc(O)n[s+]2[O-])cc1 (stereo partly drawn) [Example 96, 5-(4-(((R)-4-(2,6-dimethylphenoxy)-2,3-dihydro-1H-inden-1-yl)oxy)phenyl)-3-hydroxyisothiazole 1-oxide] | < 300 |
| Cc1cc(OCc2ccccc2)ccc1-c1cccc2c1CC[C@H]2Oc1ccc(-c2cc(O)n[s+]2[O-])cc1 (stereo partly drawn) [Example 47, 5-(4-(((R)-4-(4-benzyloxy-2-methylphenyl)-2,3-dihydro-1H-inden-1-yl)oxy)phenyl)-3-hydroxyisothiazole 1-oxide] | < 300 |
| CC(C)(O)CCOc1ccc(Oc2cccc3c2CC[C@H]3Oc2ccc(-c3cc(O)n[s+]3[O-])cc2)cc1 (stereo partly drawn) [Example 113, 3-hydroxy-5-(4-(((R)-4-(4-(3-hydroxy-3-methylbutoxy)phenoxy)-2,3-dihydro-1H-inden-1-yl)oxy)phenyl)isothiazole 1-oxide] | < 300 |
| [O-][s+]1nc(O)cc1-c1ccc(O[C@@H]2CCc3c(-c4cccc(F)c4F)cccc32)cc1 (stereo partly drawn) [Example 17, 5-(4-(((R)-4-(2,3-difluorophenyl)-2,3-dihydro-1H-inden-1-yl)oxy)phenyl)-3-hydroxyisothiazole 1-oxide] | < 300 |
| CS(=O)(=O)CCCOc1ccc(Oc2cccc3c2CC[C@H]3Oc2ccc(-c3cc(O)n[s+]3[O-])cc2)cn1 (stereo partly drawn) [Example 116, 3-hydroxy-5-(4-(((R)-4-((6-(3-(methylsulfonyl)propoxy)pyridin-3-yl)oxy)-2,3-dihydro-1H-inden-1-yl)oxy)phenyl)isothiazole 1-oxide] | < 300 |
| CCOCCOc1ccc(Oc2cccc3c2CC[C@H]3Oc2ccc(-c3cc(O)n[s+]3[O-])cc2)cn1 (stereo partly drawn) [Example 98, 5-(4-(((R)-4-((6-(2-ethoxyethoxy)pyridin-3-yl)oxy)-2,3-dihydro-1H-inden-1-yl)oxy)phenyl)-3-hydroxyisothiazole 1-oxide] | < 300 |
| [O-][s+]1nc(O)cc1-c1ccc(O[C@@H]2CCc3c(Oc4cccc(C(F)(F)F)c4)cccc32)cc1 (stereo partly drawn) [Example 84, 3-hydroxy-5-(4-(((R)-4-(3-(trifluoromethyl)phenoxy)-2,3-dihydro-1H-inden-1-yl)oxy)phenyl)isothiazole 1-oxide] | < 300 |
| COCCN(C)C(=O)c1ccc(Oc2cccc3c2CC[C@H]3Oc2ccc(-c3cc(O)n[s+]3[O-])cc2)cc1 (stereo partly drawn) [Example 146, 4-(((R)-1-(4-(3-hydroxy-1-oxidoisothiazol-5-yl)phenoxy)-2,3-dihydro-1H-inden-4-yl)oxy)-N-(2-methoxyethyl)-N-methylbenzamide] | < 300 |
| Cc1nc(OCCC(C)(C)O)ccc1-c1cccc2c1OCC2Oc1ccc(-c2cc(O)n[s+]2[O-])cc1 (single isomer, unassigned) [Example 154-a, 3-hydroxy-5-(4-((7-(6-(3-hydroxy-3-methylbutoxy)-2-methylpyridin-3-yl)-2,3-dihydrobenzofuran-3-yl)oxy)phenyl)isothiazole 1-oxide] | < 300 |

| SMILES | EC50 [nM] |
| --- | --- |
| N#Cc1cccc(Oc2cccc3c2CC[C@H]3Oc2ccc(-c3cc(O)n[s+]3[O-])cc2)c1 (stereo partly drawn) [Example 86, 3-(((1R)-1-(4-(3-hydroxy-1-oxidoisothiazol-5-yl)phenoxy)-2,3-dihydro-1H-inden-4-yl)oxy)benzonitrile] | < 300 |
| [O-][s+]1nc(O)cc1-c1ccc(O[C@@H]2CCc3c(-c4cc(F)ccc4F)cccc32)cc1 (stereo partly drawn) [Example 46, 5-(4-(((R)-4-(2,5-difluorophenyl)-2,3-dihydro-1H-inden-1-yl)oxy)phenyl)-3-hydroxyisothiazole 1-oxide] | < 300 |
| Cc1cccc(Oc2cccc3c2OCC3Oc2ccc(-c3cc(O)n[s+]3[O-])cc2)c1 (stereo not shown) [Example 155, 3-hydroxy-5-(4-((7-(m-tolyloxy)-2,3-dihydrobenzofuran-3-yl)oxy)phenyl)isothiazole 1-oxide] | < 300 |
| [O-][s+]1nc(O)cc1-c1ccc(O[C@@H]2CCc3c(-c4cccnc4Cl)cccc32)cc1 (single isomer, unassigned) [Example 75] | < 300 |
| CS(=O)(=O)c1ccc(Oc2cccc3c2CC[C@H]3Oc2ccc(-c3cc(O)n[s+]3[O-])cc2)cc1 (stereo partly drawn) [Example 107, 3-hydroxy-5-(4-(((R)-4-(4-(methylsulfonyl)phenoxy)-2,3-dihydro-1H-inden-1-yl)oxy)phenyl)isothiazole 1-oxide] | < 300 |
| O=C(c1ccc(Oc2cccc3c2CC[C@H]3Oc2ccc(-c3cc(O)n[s+]3[O-])cc2)cc1)N1CCCC1 (stereo partly drawn) [Example 147, (4-(((R)-1-(4-(3-hydroxy-1-oxidoisothiazol-5-yl)phenoxy)-2,3-dihydro-1H-inden-4-yl)oxy)phenyl)(pyrrolidine-1-yl)methanone] | < 300 |
| C=Cc1ccc(-c2cccc3c2CC[C@H]3Oc2ccc(-c3cc(O)n[s+]3[O-])cc2)cc1 (stereo partly drawn) [Example 25, 5-(4-(((R)-4-(4-vinylphenyl)-2,3-dihydro-1H-inden-1-yl)oxy)phenyl)-3-hydroxyisothiazole 1-oxide] | 300 to 3000 |
| Cc1cccc(Oc2cccc3c2CC[C@H]3Oc2ccc(-c3cc(O)n[s+]3[O-])cc2)c1 (stereo partly drawn) [Example 94, 3-hydroxy-5-(4-(((R)-4-(m-tolyloxy)-2,3-dihydro-1H-inden-1-yl)oxy)phenyl)isothiazole 1-oxide] | < 300 |
| CC(C)c1ccccc1-c1cccc2c1CC[C@H]2Oc1ccc(-c2cc(O)n[s+]2[O-])cc1 (stereo partly drawn) [Example 34, 5-(4-(((R)-4-(2-isopropylphenyl)-2,3-dihydro-1H-inden-1-yl)oxy)phenyl)-3-hydroxyisothiazole 1-oxide] | 300 to 3000 |
| Cc1cc(OCCC(C)(C)O)cc(C)c1-c1cccc2c1OCC2Oc1ccc(-c2cc(O)n[s+]2[O-])cc1 (single isomer, unassigned) [Example 148-b, 3-hydroxy-5-(4-((7-(4-(3-hydroxy-3-methylbutoxy)-2,6-dimethylphenyl)-2,3-dihydrobenzofuran-3-yl)oxy)phenyl)isothiazole 1-oxide] | 300 to 3000 |
| Cc1nc(OCCC(C)(C)O)ccc1Oc1cccc2c1OCC2Oc1ccc(-c2cc(O)n[s+]2[O-])cc1 (single isomer, unassigned) [Example 153-a, 3-hydroxy-5-(4-((7-((6-(3-hydroxy-3-methylbutoxy)-2-methylpyridin-3-yl)oxy)-2,3-dihydrobenzofuran-3-yl)oxy)phenyl)isothiazole 1-oxide] | < 300 |
| Cc1ccc(-c2cccc3c2CC[C@H]3Oc2ccc(-c3cc(O)n[s+]3[O-])cc2)cc1 (stereo partly drawn) [Example 5, 3-hydroxy-5-(4-(((1R)-4-(p-tolyl)-2,3-dihydro-1H-inden-1-yl)oxy)phenyl)isothiazole 1-oxide] | < 300 |
| Cc1cccc(-c2cccc3c2CC[C@H]3Oc2ccc(-c3cc(O)n[s+]3[O-])cc2)c1 (stereo partly drawn) [Example 24, 5-(4-(((R)-4-(3-methylphenyl)-2,3-dihydro-1H-inden-1-yl)oxy)phenyl)-3-hydroxyisothiazole 1-oxide] | < 300 |
| Cc1ccc(-c2cccc3c2CC[C@H]3Oc2ccc(-c3cc(O)n[s+]3[O-])cc2)c(C)c1 (stereo partly drawn) [Example 36, 5-(4-(((R)-4-(2,4-dimethylphenyl)-2,3-dihydro-1H-inden-1-yl)oxy)phenyl)-3-hydroxyisothiazole 1-oxide] | < 300 |
| COc1cc(Oc2cccc3c2CC[C@H]3Oc2ccc(-c3cc(O)n[s+]3[O-])cc2)ccn1 (stereo partly drawn) [Example 114, 3-hydroxy-5-(4-(((R)-4-((2-methoxypyridin-4-yl)oxy)-2,3-dihydro-1H-inden-1-yl)oxy)phenyl)isothiazole 1-oxide] | < 300 |
